Test results: ChEMBL document CHEMBL1152416, “N-terminal-prolonged vinyl ester-based peptides as selective proteasome beta1 subunit inhibitors” (Bioorg Med Chem, 2009)
pIC50: −log10 of the molar value. Where a SMILES comes first, the peptide text is derived from it. The star is where a group is joined. Cbz = O=C(OCc1ccccc1)*; X1 = C=CO*

Key:
[1] = Inhibition of trypsin-like activity of proteasome from human LCL after 30 mins by fluorimetry; type: subcellular
[2] = Inhibition of […] activity of proteasome from human LCL after 30 mins by fluorimetry; type: subcellular
[3] = Inhibition of post acidic activity of proteasome from human LCL after 30 mins by fluorimetry; type: subcellular
[4] = Inhibition of trypsin-like activity of proteasome from human PBMC after 30 mins by fluorimetry; type: subcellular
[5] = Inhibition of […] activity of proteasome from human PBMC after 30 mins by fluorimetry; type: subcellular
[6] = Inhibition of post acidic activity of proteasome from human PBMC after 30 mins by fluorimetry; type: subcellular
[7] = Inhibition of trypsin-like activity of proteasome in human PBMC after 30 mins by cell based assay; settings: 0.5 h
[8] = Inhibition of […] activity of proteasome from human PBMC after 30 mins by cell based assay; settings: 0.5 h
[9] = Inhibition of post acidic activity of proteasome from human PBMC after 30 mins by cell based assay; settings: 0.5 h
[10] = Antiproliferative activity against human LCL cells assessed as cell viability at <10 uM after 3 days by trypan blue assay; type: cell-based; settings: 72 h
JIYOYE [11] = experiment: Antiproliferative activity against human Jijoye cells assessed as cell viability at <10 uM after 3 days by trypan blue assay; type: functional, cell-based
[12] = Antiproliferative activity against human LCL cells assessed as cell viability at 10 uM after 3 days by trypan blue assay; type: cell-based; settings: 72 h
JIYOYE [13] = experiment: Antiproliferative activity against human Jijoye cells assessed as cell viability at 10 uM after 3 days by trypan blue assay; type: functional, cell-based
Homo sapiens = species: Homo sapiens; experiment: Stability in human plasma assessed as half life

Row | Structure (SMILES) | pIC50 [1] | pIC50 [2] | pIC50 [3] | pIC50 [4] | pIC50 [5] | pIC50 [6] | pIC50 [7] | pIC50 [8] | pIC50 [9] | half-life (Homo sapiens) [h] | Activity [10] | Activity (JIYOYE [11]) | Activity [12] | Activity (JIYOYE [13])
1 | C=COC(=O)[C@H](CC(C)C)NC(=O)[C@H](CC(C)C)NC(=O)[C@H](CC(C)C)NC(=O)CNC(=O)OCc1ccccc1 (Cbz-GLLL-X1) | < 5.00 | < 5.00 | < 5.00 | < 5.00 | < 5.00 | 6.26 | – | – | – | – | – | – | – | –
2 | C=COC(=O)[C@H](CC(C)C)NC(=O)[C@H](CC(C)C)NC(=O)[C@H](CC(C)C)NC(=O)CCCCCNC(=O)OCc1ccccc1 | < 5.00 | < 5.00 | 5.97 | 5.22 | < 5.00 | 7.28 | 5.05 | < 5.00 | 7.07 | > 6 | Non-toxic | Non-toxic | Toxic | Toxic
3 | C=COC(=O)[C@H](CC(C)C)NC(=O)[C@H](CC(C)C)NC(=O)[C@H](CC(C)C)NC(=O)CCCCNC(=O)OCc1ccccc1 | < 5.00 | < 5.00 | 6.06 | 5.22 | < 5.00 | 7.11 | 5.02 | < 5.00 | 6.89 | > 6 | – | – | – | –
4 | C=COC(=O)[C@H](CC(C)C)NC(=O)[C@H](CC(C)C)NC(=O)[C@H](CC(C)C)NC(=O)CCCNC(=O)OCc1ccccc1 | < 5.00 | < 5.00 | 5.68 | 5.14 | < 5.00 | 6.68 | < 5.00 | < 5.00 | 6.48 | > 6 | – | – | – | –
5 | C=COC(=O)[C@H](CC(C)C)NC(=O)[C@H](CC(C)C)NC(=O)[C@H](CC(C)C)NC(=O)CCCCCCCNC(=O)OCc1ccccc1 | < 5.00 | < 5.00 | 5.61 | < 5.00 | < 5.00 | 6.31 | – | – | – | – | – | – | – | –
6 | C=COC(=O)[C@H](CC(C)C)NC(=O)[C@H](CC(C)C)NC(=O)[C@H](CC(C)C)NC(=O)CCCCCCNC(=O)OCc1ccccc1 | < 5.00 | < 5.00 | 5.78 | < 5.00 | < 5.00 | 6.78 | – | – | – | – | – | – | – | –
7 | CC(C)C[C@@H](C=O)NC(=O)[C@H](CC(C)C)NC(=O)[C@H](CC(C)C)NC(=O)OCc1ccccc1 [MG-132] (Cbz-Leu-Leu-Leu-aldehyde) | 5.97 | 8.70 | < 5.00 | 6.04 | 7.64 | < 5.00 | – | – | – | – | – | – | – | –
8 | CC[C@H](C)[C@H](NC(=O)[C@H]([C@@H](C)CC)N(C)C(C)=O)C(=O)N[C@H](C(=O)N[C@@H](CC(C)C)C(=O)[C@@]1(C)CO1)[C@@H](C)O [EPOXOMYCIN] | – | 8.30 | – | 6.12 | 8.05 | < 5.00 | – | – | – | – | – | – | – | –

Second part, led by results:

Row | pIC50 [1] | pIC50 [2] | pIC50 [3] | pIC50 [4] | pIC50 [5] | pIC50 [6] | pIC50 [7] | pIC50 [8] | pIC50 [9] | half-life (Homo sapiens) [h] | Structure (SMILES) | Activity [10] | Activity (JIYOYE [11]) | Activity [12] | Activity (JIYOYE [13])
9 | < 5.00 | < 5.00 | 5.81 | < 5.00 | < 5.00 | 6.64 | < 5.00 | < 5.00 | 6.35 | > 6 | C=COC(=O)[C@H](CC(C)C)NC(=O)[C@H](CO)NC(=O)[C@@H](NC(=O)CCCCNC(=O)OCc1ccccc1)C(C)C | – | – | – | –
10 | < 5.00 | < 5.00 | < 5.00 | < 5.00 | < 5.00 | 5.54 | – | – | – | – | C=COC(=O)[C@H](CC(C)C)NC(=O)[C@H](CO)NC(=O)[C@@H](NC(=O)CNC(=O)OCc1ccccc1)C(C)C (Cbz-GVSL-X1) | – | – | – | –
11 | < 5.00 | < 5.00 | 5.20 | < 5.00 | < 5.00 | 6.13 | – | – | – | – | C=COC(=O)[C@H](CC(C)C)NC(=O)[C@H](CO)NC(=O)[C@@H](NC(=O)CCCNC(=O)OCc1ccccc1)C(C)C | – | – | – | –
12 | < 5.00 | < 5.00 | 5.25 | < 5.00 | < 5.00 | 6.76 | < 5.00 | < 5.00 | 6.66 | > 6 | C=COC(=O)[C@H](CC(C)C)NC(=O)[C@H](CO)NC(=O)[C@@H](NC(=O)CCCCCCCNC(=O)OCc1ccccc1)C(C)C | Non-toxic | Non-toxic | Toxic | Toxic
13 | < 5.00 | < 5.00 | 5.63 | < 5.00 | < 5.00 | 6.67 | < 5.00 | < 5.00 | 6.49 | > 6 | C=COC(=O)[C@H](CC(C)C)NC(=O)[C@H](CC(C)C)NC(=O)[C@H](CC(C)C)NC(=O)CCNC(=O)OCc1ccccc1 | – | – | – | –
14 | < 5.00 | < 5.00 | < 5.00 | < 5.00 | < 5.00 | 6.08 | – | – | – | – | C=COC(=O)[C@H](CC(C)C)NC(=O)[C@H](CO)NC(=O)[C@@H](NC(=O)CCNC(=O)OCc1ccccc1)C(C)C | – | – | – | –
15 | < 5.00 | < 5.00 | 5.86 | < 5.00 | < 5.00 | 6.70 | < 5.00 | < 5.00 | 6.39 | > 6 | C=COC(=O)[C@H](CC(C)C)NC(=O)[C@H](CO)NC(=O)[C@@H](NC(=O)CCCCCNC(=O)OCc1ccccc1)C(C)C | – | – | – | –
16 | < 5.00 | < 5.00 | 5.57 | < 5.00 | < 5.00 | 6.73 | < 5.00 | < 5.00 | 6.63 | > 6 | C=COC(=O)[C@H](CC(C)C)NC(=O)[C@H](CO)NC(=O)[C@@H](NC(=O)CCCCCCNC(=O)OCc1ccccc1)C(C)C | – | – | – | –
